Assay results published in US20200246308A1, “SYNERGISTIC COMBINATIONS OF UROLITHINS A AND B FOR IMPROVING COGNITIVE CAPACITY OR COGNITIVE FUNCTION” (Natreon, Inc., priority 2018, published 2020).
“Also recorded” adds a separate entry of the source.

Molecular target: T1, acetylcholinesterase activity in HIP homogenate (Rattus norvegicus, UniProt P37136)
T1 construct: The acetylcholinesterase activity in brain tissues was measured using Amplex red assay kit; from tissue; host or cells: rat hippocampus (brain tissue homogenate supernatant)
T1 sequence (P37136 32-614): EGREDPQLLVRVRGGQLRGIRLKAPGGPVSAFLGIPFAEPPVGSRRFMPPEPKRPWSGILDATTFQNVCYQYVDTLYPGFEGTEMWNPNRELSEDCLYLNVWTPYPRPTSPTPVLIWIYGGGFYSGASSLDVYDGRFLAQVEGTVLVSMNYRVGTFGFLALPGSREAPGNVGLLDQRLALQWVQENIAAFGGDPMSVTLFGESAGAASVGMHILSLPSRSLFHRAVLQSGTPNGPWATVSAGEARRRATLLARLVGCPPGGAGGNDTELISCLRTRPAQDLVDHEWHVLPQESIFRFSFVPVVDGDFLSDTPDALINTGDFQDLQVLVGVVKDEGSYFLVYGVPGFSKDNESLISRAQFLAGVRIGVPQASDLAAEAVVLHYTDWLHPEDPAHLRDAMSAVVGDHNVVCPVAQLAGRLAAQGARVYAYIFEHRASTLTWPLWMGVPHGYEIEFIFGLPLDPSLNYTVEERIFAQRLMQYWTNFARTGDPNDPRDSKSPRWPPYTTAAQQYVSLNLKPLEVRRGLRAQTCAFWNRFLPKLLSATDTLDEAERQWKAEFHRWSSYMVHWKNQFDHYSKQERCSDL
Assay: Acetylcholinesterase activity in hippocampal tissue, Amplex Red kit (Example 9C)
Assay type: in vivo, Male Wistar rats
Conditions: p.o. 7 days: B 50, A 50, Donepezil 3, B:A 10:50 and 50:50 mg/kg, Shilajit 25 mg/kg b.i.d
Procedure: Drug solution was freshly prepared in 0.3% CMC and administered by oral gavage once a day, for a period of 7 days. Briefly, the whole experiment was conducted for 8 days. Scopolamine (1 mg/kg), a muscarinic receptor antagonist, was dissolved in normal saline (0.9% NaCl) and administered intraperitoneally 1 h after drugs administration on seventh day.
Sample preparation: The animals were killed by decapitation and the brain tissues were dissected out in ice-cold conditions and stored at −80° C. until use. Tissue was homogenized in 1.0 ml of 0.1M perchloric acid with a Potter-Elvehjem homogenizer. The homogenate was kept in the polypropylene tubes for 15 min after which 40 μl of 4M potassium acetate was added to adjust the pH to 4.0 followed by centrifugation for 15 min at 4000×g. Supernatant was used to estimate acetylcholine and AChE activities.
Spectrofluorometric assay of acetylcholinesterase activity: The acetylcholinesterase activity in brain tissues was measured using Amplex red assay kit (Molecular Probes, Inc., USA). An acetylcholinesterase standard curve was used in each experiment. Briefly, Begin the reactions by adding 0.1 ml of control (10 μM H2O2) and tissue homogenate were taken in two separate polypropylene tubes and then 0.1 ml working solution of 400 μM Amplex Red reagent containing 2 U/mL HRP, 0.2 U/mL choline oxidase and 100 μM acetylcholine were added to each tube. After incubation for 45 min, the fluorescence was recorded with the help of spectrofluorometer at 530 nm excitation and 590 nm emission wavelengths.
Statistical analyses: The results were expressed as means±Standard Error mean (SEM). The intergroup variation was measured by one-way ANOVA followed by Student-Newman-Keuls test. […] Statistical analysis was done by using Graph Pad prism version 5 (San Diego, Calif.). A level of p<0.05 was accepted as statistically significant.

Compound | Scopolamine-induced increase in acetylcholinesterase activity in HIP homogenate | Scopolamine-induced increase in acetylcholinesterase activity in HIP homogenate (listed as 3,8-(OH)2-DBP (A))
O=c1oc2cc(O)ccc2c2ccccc12 [Urolithin B, 3-hydroxy-dibenzo-alpha-pyrone] | attenuated the scopolamine induced increase acetylcholinesterase activity | –
O=c1oc2cc(O)ccc2c2ccc(O)cc12 [Urolithin A, 3,8-dihydroxy-dibenzo-alpha-pyrone] | – | attenuated the scopolamine induced increase acetylcholinesterase activity; also recorded: less effective than 3-OH-DBP (B) 50 mg/kg
